In US12590340B2, “Microfluidic plasmonic color reading chips and methods” (priority 2021, dated 2026):
In brackets after ≈: the same amount, converted by molar mass. Entries after “also recorded” stand apart in the source; their conditions may differ. Like-named read-outs stand apart in the source and are kept apart here.

Experiments:
[1] = tested on: Ampicillin resistant Escherichia coli strain; assay: antibiotic susceptibility profiling by resazurin color change on the plasmonic microfluidic chip; assay type: cell-based; details: for increase in green value of the 1-hour incubated aliquots compared to the zero minute incubation aliquot: 100 μg/mL ampicillin, 37° C.; for constant green value throughout the 1-hour incubation: 50 μg/mL kanamycin
Experimental: Ampicillin resistant Escherichia coli strain (Amp resistant E. coli, #211540, Merlan scientific, Ontario, Canada) was cultured overnight at 37° C. in Luria broth (LB) media supplemented with 100 μg/mL Ampicillin (#216858, Merlan scientific, Ontario, Canada). Next, the bacterial concentration was determined by optical density technique using a Spectronic 21D spectrophotometer. Subsequently, aliquots of different concentrations were prepared for the antibiotic susceptibility testing experiments.
(§1) Resistant E. coli, MRSA, and Cipro. Resistant PA respectively was used. The aliquots were incubated at 37° C. for different periods of time starting from 0 minutes incubation to a 60 minutes with a time step of 5 minutes. For susceptible bacterial samples, aliquots of Amp resistant E. coli were prepared (5×10^5 CFU/mL, 10^3 CFU/mL, 10^2 CFU/mL, and 50 CFU/mL), MRSA (5×10^5 CFU/mL), and Cipro. Resistant PA (5×10^5 CFU/mL). […] Resistant E. coli, MRSA, and Cipro. Resistant PA respectively was used. The aliquots were incubated at 37° C. different periods starting from 0 minutes incubation till 60 minutes with a time step of 5 minutes.
(§2) To rapidly detect the sample color change on the platform the reflectance spectra was measured using a Lambda 750 UV/Vis/NIR Spectrophotometer (PerkinElmer). The incident and collected light beams had normal incidence to the platform. Further, optical imaging was performed under highly controlled environment using Nikon Eclipse LV150 (Nikon) with a ×100, 0.9 NA air objective and Nikon digital sight ds-fi1 CCD camera with a white reference of R:0.75 G:1.0 B:2.36.51.
(§3) The microfluidic chip used was similar to that illustrated in FIG. 1B, having two characteristic chambers 1) antibiotic infusing chamber (AI) 103 equipped with bacteria entrapping micropillars 104p; and 2) plasmonic color-sensitive chamber (PCS) 105. The operational procedure of the microfluidic chip was to inject the bacteria containing growth media along with an antibiotic of interest and 0.02% resazurin solution from the inlet to get mixed in the Al mixing and entrapment chamber. Microfluidic chips were incubated for one hour through time intervals of 5 minutes. After incubation, the liquid in the Al chamber 103 was pushed towards the PCS chamber 105 sensing chamber while the bacteria was entrapped behind the micropillars 104p.
To conveniently convert the microscopy results to the feasible CIE color gamut, each picture of the data set loaded to MATLAB was read as a 3 layer matrix, each pixel has 3 components, one per layer, corresponding to its R, G and B value. The processing involved image crop and a sample selection. A simple average calculation was run individually to get an overall value for R, G and B components for each of the 5 samples generated. Following that, the mean across the collection was calculated. The error bar was computed at 1 standard deviation.
All images were processed and analyzed through a MATLAB™ script which allowed the analysis of multiple images simultaneously. The TIFF files were loaded and cropped to 80% of their original dimensions to avoid the coffee-ring effect. An option for the manual crop was also available. For each image, five samples of 480×480 pixels were randomly selected. Subsequently, for each the R, G and B values were averaged followed by the calculation of the mean RGB value and error across them. Succeeding their conversion to XYZ and x, y color systems. The RGB values of each image with its corresponding error bar were plotted against time. Additionally, the x and y values were scattered on the CIE1931 color space to analyze the color change through time.

[2] = tested on: Amp. Resistant E. coli; assay: antibiotic susceptibility study in spiked human urine on the chip; assay type: cell-based, Escherichia coli
Experimental: For the spiked human sample experiment, human urine was centrifuged at 5000 rcf for 5 minutes to remove large particles. It was subsequently spiked with 5×10^5 CFU/mL and mixed with a solution of resazurin to a final concentration of 0.02%. No antibiotics were added for the control aliquots, 100 μg/mL ampicillin was added for resistant aliquots and 50 μg/mL Kanamycin was added for susceptible aliquots. The aliquots were incubated at 37° C. different periods starting from 0 minutes incubation till 60 minutes with a time step of 5 minutes.
FIGS. 11A-11F show the results of an antibiotic susceptibility study conducted using human urine spiked with Amp. Resistant E. coli to a final concentration of 5×10^5 CFU/mL. The study utilized 3 aliquot sets of control (no antibiotic), resistant (100 μg/mL Ampicillin), and susceptible (50 μg/mL Kanamycin). […] The trend is highlighted with a white arrow on the 2D chromaticity diagram in FIG. 11B. […] are web plots of the red, green, and blue values analyzed from the bright-field microscopy of the sets. […] Green values increased overtime in the control and resistant sets (88 to 122 for resistant and 82 to 117 for control) showing the change towards green color and indicating the reduction of resazurin to resorufin by viable bacterial cells. […] Resistant E. coli.

[3] = tested on: Amp. Resistant E. coli; assay: antibiotic susceptibility study in spiked whole blood on the chip; assay type: cell-based, Escherichia coli; details: 100, 50, 20 CFU/mL, 32 μg/mL Ampicilin, up to 150 minutes
Experimental: For the spiked human sample experiment, human whole blood was centrifuged in two steps first at 150 rcf for 10 minutes followed by 7000 rcf for 3 min. It was subsequently spiked with 100, 50 or 20 CFU/mL and mixed with a solution of resazurin to a final concentration of 0.01%. No antibiotics were added for the control aliquots, 32 μg/mL ampicillin was added for resistant aliquots and 16 μg/mL kanamycin was added for susceptible aliquots. The aliquots were incubated at 37° C. different periods starting from 0 minutes incubation till 150 minutes with a time step of 5 minutes.
FIGS. 12A-12B show the results of an antibiotic susceptibility study conducted using whole blood spiked with Amp. Resistant E. coli to a final concentration of 100, 50, 20 CFU/mL in the presence of 32 μg/mL Ampicilin. […] The mean Gvalue/Bvalue (a) can be a credible parameter to follow the sequence in the color change and translate it to a quantifiable data FIG. 12B. […] Quantifiably, the time in which the α-value undergoes a step levitation is corresponding to the time the color transition is visible to the naked eye.

[4] = tested on: MRSA; assay: antibiotic susceptibility profiling by resazurin color change on the plasmonic microfluidic chip; assay type: cell-based, Staphylococcus aureus; details: 5×10^5 CFU/mL, 4 ug/mL Oxacillin; for color response over 1-hour incubation (resistant / susceptible): 1 ug/mL Ciprofloxacin
Experimental: as §1, §2
as §3, with “After incubation, the liquid in the Al chamber 103 was pushed towards the PCS chamber 105 sensing chamber while the bacteria was entrapped behind the micropillars 104p.” left out
(§4) To conveniently convert the microscopy results to the feasible CIE color gamut, each picture of the data set loaded to MATLAB was read as a 3 layer matrix, each pixel has 3 components, one per layer, corresponding to its R, G and B value. […] Following that, the mean across the collection was calculated. […]
(§5) All images were processed and analyzed through a MATLAB™ script which allowed the analysis of multiple images simultaneously. […]

[5] = tested on: Cipro. Resistant PA; assay: as above; assay type: cell-based, Pseudomonas aeruginosa; details: 5×10^5 CFU/mL; 2 ug/mL Ciprofloxacin, 4 ug/mL Gentamicin
Experimental: as §1
To rapidly detect the sample color change on the platform the reflectance spectra was measured using a Lambda 750 UV/Vis/NIR Spectrophotometer (PerkinElmer). The incident and collected light beams had normal incidence to the platform. […]
as §4, §5

[6] = tested on: Cipro. Resistant PA; details: 60 minutes, 5×10^5 CFU/mL
Text: as §3

[7] = tested on: Amp resistant E. coli; assay: minimum inhibitory concentration (MIC) study with resazurin on the chip; details: for y-value: 60 minutes, 5×10^5 CFU/mL
[8] = tested on: MRSA; assay: standard MIC assay using CLSI protocols; assay type: cell-based, Staphylococcus aureus; details: 96 well plate, overnight culture; 5×10^5 CFU/mL
Experimental: For the Clinical & Laboratory Standards Institute (CLSI) MIC protocol bacteria were streaked on LB agar overnight and resuspended in water aliquot. The aliquot was measured, and the bacteria concentration was adjusted to 10^6 CFU/mL in LB media. A 96 well plate with an antibiotic gradient from 128 μg/ml to 0.125 μg/ml in a 2-fold concentration dilution step was prepared with a positive control with no antibiotics. Next, the bacteria were introduced to each well of the 96 well plate for a final bacteria concentration of 5×10^5 CFU/mL. The well plates were cultured overnight.

[9] = tested on: MRSA; assay: minimum inhibitory concentration (MIC) study with resazurin on the chip; details: for y-value: 60 minutes, 5×10^5 CFU/mL
[10] = 5×10^5 CFU/mL, 100 μg/mL Ampicillin, 50 μg/mL Kanamycin

CC1(C)S[C@@H]2[C@H](NC(=O)[C@H](N)c3ccccc3)C(=O)N2[C@H]1C(=O)O [Ampicillin] was tested, and the “increase of y values (2D chromaticity diagram) over 1-hour incubation, control and resistant aliquots” value ([1]; 100 μg/mL Ampicillin, 5×10^5 CFU/mL) was 0.19 to 0.33, the “increase in green value of the 1-hour incubated aliquots compared to the zero minute incubation aliquot” value (“increase in green value” below) ([1]; 5×10^5 CFU/mL) was 194% and the “increase in green value” value ([1]; 10^2 CFU/mL) was 142%. For the same molecule, the “increase in green value” value ([1]; 10^3 CFU/mL) was 140%, the “increase in green value” value ([1]; 50 CFU/mL) was 131% and the “color response over 1-hour incubation (resistant / susceptible)” value [1, 10] was “color change from initial dark blue to green; also recorded: color-change from navy blue to green”. For the same molecule, the “increase of green values over time (resistant set)” value ([2]; 100 μg/mL Ampicillin, 1-hour incubation) was 88 to 122, the “increase in the y-value over time (resistant aliquots)” value ([2]; 100 μg/mL Ampicillin, 5×10^5 CFU/mL, 1-hour incubation) was 0.22 to 0.34 and the “color response over 1-hour incubation” value [2, 10] was “color change trend from dark blue at zero-minute incubation towards cyan; also recorded: color-change from navy blue to green”. The color response [3] was “color change trend from dark blue at zero-minute incubation towards cyan”.
With O=C(O)c1cn(C2CC2)c2cc(N3CCNCC3)c(F)cc2c1=O [Ciprofloxacin] the “color response over 1-hour incubation (resistant / susceptible)” value [4] was “constant dark blue color; also recorded: susceptible”, the “color response over 1-hour incubation (resistant / susceptible)” value [5] was “color change from initial dark blue to green; also recorded: resistant” and the y-value ([6]; 8 μg/mL Ciprofloxacin) was 0.38. For the same molecule, the y-value ([6]; 16 μg/mL Ciprofloxacin) was 0.125 and the y-value ([6]; 32 μg/mL Ciprofloxacin) was 0.175.
With NC[C@H]1O[C@H](O[C@H]2[C@H](O)[C@@H](O[C@H]3O[C@H](CO)[C@@H](O)[C@H](N)[C@H]3O)[C@H](N)C[C@@H]2N)[C@H](O)[C@@H](O)[C@@H]1O [Kanamycin] the “constant green value throughout the 1-hour incubation” value ([1]; 5×10^5 CFU/mL) was 49.26±5.32, the “constant green value throughout the 1-hour incubation” value ([1]; 10^2 CFU/mL) was 47.28±1.93 and the “constant green value throughout the 1-hour incubation” value ([1]; 10^3 CFU/mL) was 48.12±3.21. The “constant green value throughout the 1-hour incubation” value ([1]; 50 CFU/mL) was 46.15±2.56, the “constant blue value throughout the 1-hour incubation” value ([2]; 50 μg/mL Kanamycin) was 138.7±5.3 and the “constant green value throughout the 1-hour incubation” value ([2]; 50 μg/mL Kanamycin) was 76.8±4.5. For the same molecule, the “constant red value throughout the 1-hour incubation” value ([2]; 50 μg/mL Kanamycin) was 56.6±4.7, the “y-value, constant (susceptible set)” value ([2]; 50 μg/mL Kanamycin, 5×10^5 CFU/mL, 1-hour incubation) was 0.205±0.025 and the y-value ([7]; 4 μg/mL kanamycin) was 0.3. The y-value ([7]; 8 μg/mL kanamycin) was 0.125, the y-value ([7]; 16 μg/mL kanamycin) was 0.175 and the MIC ([7]; Escherichia coli, 1 h, read-out: minimum inhibitory concentration (MIC)) was 8 µg/mL (≈ 16.5 µM).
In the case of Cc1onc(-c2ccccc2)c1C(=O)N[C@@H]1C(=O)N2[C@@H]1SC(C)(C)[C@@H]2C(=O)O [Oxacillin], the “increase of y values (2D chromaticity diagram) over 1-hour incubation, control and resistant aliquots” value [4] is reported as 0.16 to 0.33, the “color response over 1-hour incubation (resistant / susceptible)” value [4] is reported as “color change from initial dark blue to green; also recorded: resistant” and the “MIC by standard MIC assay using CLSI protocols, compared with chip MIC” value [8] is reported as “confirmed the obtained MIC”. For the same molecule, the “inhibition of MRSA metabolism (color change from purple to cyan)” value ([9]; 16 μg/mL Oxacillin dose) was “not enough to fully inhibit”, the y-value ([9]; 16 μg/mL Oxacillin) was 0.3 and the y-value ([9]; 32 μg/mL Oxacillin) was 0.125. The y-value ([9]; 64 μg/mL Oxacillin) was 0.13, the MIC ([9]; Staphylococcus aureus, MRSA, 1 h, read-out: minimum inhibitory concentration (MIC)) was 32 µg/mL (≈ 79.7 µM) and the “category according to the CLSI breakpoints” value ([9]; from MIC) was “resistant”.
With Gentamicin the “color response over 1-hour incubation (resistant / susceptible)” value [5] was “constant dark blue color; also recorded: susceptible”.
